Assay [1] can be described thus: intracellular Trypanosoma cruzi inhibitors in host cells – cell-based, plate reader, cherry-pick samples, set 3, dose response (AID 651818).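 Further: compounds incubated with infected cells for about four days.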 The assay is classed as functional.
For assay [2], the target named is T1, Polyadenylate-binding protein 1 (Homo sapiens, UniProt P11940). Put plainly: MLLE binding blockers, Cy5 peptide tracer – biochemical, fluorescence polarization, Cy5-PAM2 peptide, secondary, miRNA deadenylation inhibitor project, dose response (AID 602260). Particulars: read-out: IC50_Mean. It counts as functional.
T1 sequence (P11940 whole entry, the tested form may be a part): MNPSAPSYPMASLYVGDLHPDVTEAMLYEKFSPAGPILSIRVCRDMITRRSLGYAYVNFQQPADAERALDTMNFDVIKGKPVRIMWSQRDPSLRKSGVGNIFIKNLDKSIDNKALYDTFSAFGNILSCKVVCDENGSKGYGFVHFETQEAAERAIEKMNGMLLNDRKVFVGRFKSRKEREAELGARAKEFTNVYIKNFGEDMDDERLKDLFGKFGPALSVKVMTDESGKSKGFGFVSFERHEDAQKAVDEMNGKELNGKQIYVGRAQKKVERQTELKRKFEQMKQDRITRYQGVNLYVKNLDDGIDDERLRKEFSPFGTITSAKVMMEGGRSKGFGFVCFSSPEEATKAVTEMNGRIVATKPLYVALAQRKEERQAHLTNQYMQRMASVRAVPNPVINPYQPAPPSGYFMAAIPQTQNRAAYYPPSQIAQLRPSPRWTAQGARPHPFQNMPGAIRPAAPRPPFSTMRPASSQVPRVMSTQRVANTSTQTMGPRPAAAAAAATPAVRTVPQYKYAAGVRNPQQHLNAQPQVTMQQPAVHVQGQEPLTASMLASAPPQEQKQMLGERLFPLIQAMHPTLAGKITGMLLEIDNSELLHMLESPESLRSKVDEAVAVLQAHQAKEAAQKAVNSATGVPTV
In assay [3] the target is T1, Polyadenylate-binding protein 1. Put plainly: MLLE domain peptide-binding blockers, IC50 – biochemical, fluorescence polarization, FITC-PAM2 peptide, dose response (AID 602259). The assay is classed as functional. Particulars: read-out: IC50_Mean.
Assay [4] concerns the target FAD-linked sulfhydryl oxidase ALR (Homo sapiens, UniProt P55789). Put plainly: ALR-catalysed DTT oxidation blockers – biochemical, H2O2 detection, luminescence, cherry-pick, dose response (AID 493248).
The target in assay [5] is Cytochrome P450 2D6 (Homo sapiens, UniProt P10635).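 Further: CYP2D6 member of a cytochrome P450 panel assay.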
Cytochrome P450 2D6, sequence (P10635 whole entry): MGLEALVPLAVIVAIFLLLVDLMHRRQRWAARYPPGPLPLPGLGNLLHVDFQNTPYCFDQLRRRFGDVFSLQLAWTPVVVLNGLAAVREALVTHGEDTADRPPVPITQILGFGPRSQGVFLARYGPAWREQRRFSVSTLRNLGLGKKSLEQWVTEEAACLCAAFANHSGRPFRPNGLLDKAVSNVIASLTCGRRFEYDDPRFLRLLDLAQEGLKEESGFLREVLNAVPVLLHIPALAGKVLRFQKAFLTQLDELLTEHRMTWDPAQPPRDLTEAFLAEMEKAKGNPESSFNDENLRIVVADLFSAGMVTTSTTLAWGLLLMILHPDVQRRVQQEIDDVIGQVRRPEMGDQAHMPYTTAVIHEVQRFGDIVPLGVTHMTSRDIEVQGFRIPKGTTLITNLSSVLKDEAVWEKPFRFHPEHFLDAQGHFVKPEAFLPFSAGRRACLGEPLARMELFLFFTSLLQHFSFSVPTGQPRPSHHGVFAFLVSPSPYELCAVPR
Assay [6] has as its target Cytochrome P450 2C9 (Homo sapiens, UniProt P11712).
For assay [7], the target named is Voltage-dependent T-type calcium channel subunit alpha-1H (Homo sapiens, UniProt O95180). It counts as functional.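 Further: channel activity triggered by adding a high calcium stimulation buffer.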
Voltage-dependent T-type calcium channel subunit alpha-1H, sequence (O95180 whole entry): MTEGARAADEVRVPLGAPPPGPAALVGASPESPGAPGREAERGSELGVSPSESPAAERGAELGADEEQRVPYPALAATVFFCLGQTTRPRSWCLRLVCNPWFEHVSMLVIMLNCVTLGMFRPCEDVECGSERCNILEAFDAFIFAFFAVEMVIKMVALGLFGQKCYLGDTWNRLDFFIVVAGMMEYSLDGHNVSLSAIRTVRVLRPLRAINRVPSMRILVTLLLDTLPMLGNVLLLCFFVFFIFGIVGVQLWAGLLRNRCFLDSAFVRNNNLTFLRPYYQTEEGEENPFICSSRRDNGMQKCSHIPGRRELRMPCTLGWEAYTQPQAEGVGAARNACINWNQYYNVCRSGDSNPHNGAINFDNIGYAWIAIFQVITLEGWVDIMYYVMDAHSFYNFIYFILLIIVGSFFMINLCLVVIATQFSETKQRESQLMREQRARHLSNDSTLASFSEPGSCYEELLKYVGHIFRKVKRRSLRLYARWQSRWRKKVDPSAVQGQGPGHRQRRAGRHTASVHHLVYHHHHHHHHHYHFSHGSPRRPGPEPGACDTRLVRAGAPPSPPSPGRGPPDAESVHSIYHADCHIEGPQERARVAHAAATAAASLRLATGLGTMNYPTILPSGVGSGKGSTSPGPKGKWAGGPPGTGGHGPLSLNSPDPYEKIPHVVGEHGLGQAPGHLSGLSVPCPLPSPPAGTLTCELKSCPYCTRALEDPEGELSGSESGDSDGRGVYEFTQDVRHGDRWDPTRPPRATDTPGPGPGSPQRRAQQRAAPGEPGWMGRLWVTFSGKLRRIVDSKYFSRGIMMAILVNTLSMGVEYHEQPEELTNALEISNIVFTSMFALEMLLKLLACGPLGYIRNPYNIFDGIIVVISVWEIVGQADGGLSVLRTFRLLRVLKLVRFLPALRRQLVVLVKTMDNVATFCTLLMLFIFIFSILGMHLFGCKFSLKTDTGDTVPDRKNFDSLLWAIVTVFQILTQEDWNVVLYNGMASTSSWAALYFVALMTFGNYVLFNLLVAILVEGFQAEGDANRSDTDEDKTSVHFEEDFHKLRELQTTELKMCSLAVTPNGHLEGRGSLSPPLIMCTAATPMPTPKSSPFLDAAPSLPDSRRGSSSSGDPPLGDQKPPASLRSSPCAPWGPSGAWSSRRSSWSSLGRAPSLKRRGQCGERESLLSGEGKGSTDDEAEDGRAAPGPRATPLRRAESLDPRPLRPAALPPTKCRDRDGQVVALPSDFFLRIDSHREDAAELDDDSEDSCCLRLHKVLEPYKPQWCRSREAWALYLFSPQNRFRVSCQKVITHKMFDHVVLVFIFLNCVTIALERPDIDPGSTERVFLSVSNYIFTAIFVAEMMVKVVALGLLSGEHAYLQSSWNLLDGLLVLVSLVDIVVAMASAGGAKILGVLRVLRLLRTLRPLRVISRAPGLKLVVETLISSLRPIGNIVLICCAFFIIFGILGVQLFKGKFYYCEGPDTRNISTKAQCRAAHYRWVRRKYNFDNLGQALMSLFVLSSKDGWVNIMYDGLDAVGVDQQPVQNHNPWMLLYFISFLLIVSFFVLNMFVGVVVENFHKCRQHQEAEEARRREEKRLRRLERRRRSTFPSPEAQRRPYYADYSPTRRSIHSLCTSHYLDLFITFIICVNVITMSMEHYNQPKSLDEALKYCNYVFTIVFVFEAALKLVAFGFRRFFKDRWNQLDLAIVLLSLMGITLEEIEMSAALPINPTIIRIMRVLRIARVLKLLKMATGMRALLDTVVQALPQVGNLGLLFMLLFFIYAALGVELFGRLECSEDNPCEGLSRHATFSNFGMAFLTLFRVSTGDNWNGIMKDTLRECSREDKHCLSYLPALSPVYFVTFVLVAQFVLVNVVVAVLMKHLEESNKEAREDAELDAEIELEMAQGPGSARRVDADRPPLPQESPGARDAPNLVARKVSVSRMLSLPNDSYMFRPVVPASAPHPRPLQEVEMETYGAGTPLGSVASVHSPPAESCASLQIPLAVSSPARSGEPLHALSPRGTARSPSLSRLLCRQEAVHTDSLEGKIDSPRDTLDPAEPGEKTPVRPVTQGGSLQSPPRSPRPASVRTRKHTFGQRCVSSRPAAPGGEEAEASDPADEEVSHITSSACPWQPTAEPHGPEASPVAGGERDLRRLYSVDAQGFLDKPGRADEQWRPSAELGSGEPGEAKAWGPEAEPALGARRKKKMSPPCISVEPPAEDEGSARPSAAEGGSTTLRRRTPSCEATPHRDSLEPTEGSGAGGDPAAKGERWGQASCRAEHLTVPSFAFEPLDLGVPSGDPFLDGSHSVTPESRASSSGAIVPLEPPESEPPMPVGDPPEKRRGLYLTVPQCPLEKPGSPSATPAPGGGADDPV
Assay [8] deals with Cytochrome P450 3A4 (Homo sapiens, UniProt P08684).
Assay [9] is described as follows: NIH3T3 cell viability loss – ATP luminescence, mouse fibroblasts, counter-screen, dose response (AID 2010).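 Further: cells exposed to compound for about 90 hours before reading.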 The assay is classed as functional, cell-based.
Assay [10] in a line: Trypanosoma cruzi growth suppression in host cells – NIH3T3 host cells, beta-gal luminescence, confirmation (AID 2044).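 Further: intracellular parasites grown in NIH/3T3 mouse fibroblasts as host cells; luminescent beta-galactosidase reporter signal from transgenic T. cruzi replicating inside host cells; inhibitors lower the luminescence signal.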 It counts as functional, cell-based.
Assay [11] concerns the target T2, Corticotropin-releasing factor receptor 2/Corticotropin-releasing factor-binding protein (Homo sapiens, UniProt P24387+Q13324).
T2 sequence (Q13324 whole entry): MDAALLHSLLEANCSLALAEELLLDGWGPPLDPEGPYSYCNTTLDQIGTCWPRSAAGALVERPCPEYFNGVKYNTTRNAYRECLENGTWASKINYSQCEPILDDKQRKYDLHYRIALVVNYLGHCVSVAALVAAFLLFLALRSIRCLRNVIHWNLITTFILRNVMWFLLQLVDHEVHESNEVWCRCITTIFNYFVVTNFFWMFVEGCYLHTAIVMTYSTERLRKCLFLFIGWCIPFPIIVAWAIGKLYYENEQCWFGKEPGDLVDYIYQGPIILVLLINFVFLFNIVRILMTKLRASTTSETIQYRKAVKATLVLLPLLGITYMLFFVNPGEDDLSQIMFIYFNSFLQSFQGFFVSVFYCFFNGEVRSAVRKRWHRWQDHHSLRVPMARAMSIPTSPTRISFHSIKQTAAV
T2 sequence (P24387 whole entry): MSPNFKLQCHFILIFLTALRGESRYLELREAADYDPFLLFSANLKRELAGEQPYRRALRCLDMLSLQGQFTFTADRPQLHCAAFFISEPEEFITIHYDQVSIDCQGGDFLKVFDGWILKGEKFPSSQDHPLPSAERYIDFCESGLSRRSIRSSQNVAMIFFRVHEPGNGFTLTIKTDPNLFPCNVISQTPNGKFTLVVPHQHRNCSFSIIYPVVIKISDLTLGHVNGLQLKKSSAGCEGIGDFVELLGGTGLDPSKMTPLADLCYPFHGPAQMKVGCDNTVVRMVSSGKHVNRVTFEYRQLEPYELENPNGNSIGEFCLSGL
Put plainly: activators of CRF receptor 2 with binding protein – uHTS hits, confirmation (AID 602473). Conditions: read-out: EC50_Mean. It counts as functional.

The target of assay [12] is T3, Calpain-2 catalytic subunit (Sus scrofa, UniProt P43367).
T3 sequence (P43367 whole entry): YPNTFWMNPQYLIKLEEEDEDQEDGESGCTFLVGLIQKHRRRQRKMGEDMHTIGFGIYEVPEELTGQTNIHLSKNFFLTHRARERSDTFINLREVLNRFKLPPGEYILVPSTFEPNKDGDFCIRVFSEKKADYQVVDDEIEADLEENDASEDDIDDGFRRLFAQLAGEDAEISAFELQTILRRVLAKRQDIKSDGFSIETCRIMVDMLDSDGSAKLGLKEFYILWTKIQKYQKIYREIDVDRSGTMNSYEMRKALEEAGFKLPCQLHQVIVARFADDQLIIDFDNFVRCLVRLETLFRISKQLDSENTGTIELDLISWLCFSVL
Put plainly: m-calpain protease blockers, concentration series – biochemical, fluorogenic peptide substrate, dose response (AID 1420). It counts as functional.

For assay [13], the target named is T4, Rac GTPase-activating protein 1 (Homo sapiens, UniProt Q9H0H5).
T4 sequence (Q9H0H5 whole entry): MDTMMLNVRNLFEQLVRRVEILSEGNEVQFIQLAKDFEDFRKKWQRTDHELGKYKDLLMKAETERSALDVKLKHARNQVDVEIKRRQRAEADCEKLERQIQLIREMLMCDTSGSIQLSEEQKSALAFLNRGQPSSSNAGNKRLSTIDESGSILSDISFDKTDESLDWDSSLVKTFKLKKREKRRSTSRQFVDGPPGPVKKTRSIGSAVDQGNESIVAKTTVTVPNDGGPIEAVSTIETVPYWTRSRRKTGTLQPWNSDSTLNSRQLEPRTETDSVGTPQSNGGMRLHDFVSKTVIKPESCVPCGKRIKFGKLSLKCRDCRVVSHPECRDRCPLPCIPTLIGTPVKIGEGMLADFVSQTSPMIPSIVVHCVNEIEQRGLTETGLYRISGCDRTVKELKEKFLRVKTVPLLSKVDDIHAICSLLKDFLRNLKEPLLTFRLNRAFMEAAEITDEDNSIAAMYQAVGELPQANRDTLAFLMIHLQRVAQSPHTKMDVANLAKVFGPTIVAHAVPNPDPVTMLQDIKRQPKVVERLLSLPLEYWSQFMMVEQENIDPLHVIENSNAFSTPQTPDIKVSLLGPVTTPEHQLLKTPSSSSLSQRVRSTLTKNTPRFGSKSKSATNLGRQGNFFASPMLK
Put plainly: blockers of MgcRacGAP-driven Rac1 GTP hydrolysis – biochemical, ADP Hunter fluorescence, primary and confirmatory, confirmation (AID 624330). The assay is classed as functional.

The target of assay [14] is T5, Heat shock factor protein 1 (Mus musculus, UniProt P38532).
T5 sequence (P38532 whole entry): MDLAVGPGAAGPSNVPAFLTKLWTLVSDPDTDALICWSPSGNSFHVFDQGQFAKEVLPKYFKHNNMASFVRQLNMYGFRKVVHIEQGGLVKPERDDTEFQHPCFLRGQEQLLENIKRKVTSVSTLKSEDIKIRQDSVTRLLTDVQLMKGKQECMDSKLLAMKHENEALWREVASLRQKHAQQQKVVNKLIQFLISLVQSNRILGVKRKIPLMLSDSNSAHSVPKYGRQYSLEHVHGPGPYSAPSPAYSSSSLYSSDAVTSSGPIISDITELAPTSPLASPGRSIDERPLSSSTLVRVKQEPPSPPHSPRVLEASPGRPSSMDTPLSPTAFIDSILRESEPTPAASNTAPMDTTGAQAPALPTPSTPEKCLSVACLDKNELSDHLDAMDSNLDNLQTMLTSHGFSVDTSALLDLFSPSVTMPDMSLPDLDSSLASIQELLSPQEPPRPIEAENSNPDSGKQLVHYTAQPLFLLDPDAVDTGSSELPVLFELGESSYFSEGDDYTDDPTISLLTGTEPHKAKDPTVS
Put plainly: decrease of HSF1-responsive luciferase luminescence – cell-based, NIH3T3, dose retest, confirmation (AID 2382).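 Further: NIH3T3 fibroblasts with HSF1-driven luciferase reporter stressed by proteasome inhibitor MG132; luminescence from HSF1-driven luciferase expression after 8 hours of MG132 stress.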 It counts as functional.

Assay [15] concerns Streptococcus. Put plainly: GAS UMAA2166 growth inhibition – luminescence, BacTiterGlo, counter-screen for streptokinase expression inhibitor project, dose response (AID 1915).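 Further: potency for reduction of bacterial viability or growth.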 It counts as functional, organism-based.
For assay [16], the target named is T6, Streptokinase A (Streptococcus pyogenes serotype M1, UniProt P10520).
T6 sequence (P10520 whole entry): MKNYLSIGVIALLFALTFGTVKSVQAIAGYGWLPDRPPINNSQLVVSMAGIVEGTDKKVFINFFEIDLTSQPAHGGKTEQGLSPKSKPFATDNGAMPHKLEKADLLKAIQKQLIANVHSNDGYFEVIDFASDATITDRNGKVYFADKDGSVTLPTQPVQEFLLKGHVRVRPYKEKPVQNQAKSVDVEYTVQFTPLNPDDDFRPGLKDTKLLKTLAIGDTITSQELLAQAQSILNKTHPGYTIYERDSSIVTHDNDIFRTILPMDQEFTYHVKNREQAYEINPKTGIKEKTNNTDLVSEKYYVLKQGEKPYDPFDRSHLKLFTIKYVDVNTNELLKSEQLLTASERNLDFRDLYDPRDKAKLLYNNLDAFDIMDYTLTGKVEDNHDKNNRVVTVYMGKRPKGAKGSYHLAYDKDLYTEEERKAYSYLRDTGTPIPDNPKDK
Put plainly: viability-normalized secreted streptokinase activity reduction – plasminogen activation absorbance, OD405, dose response (AID 1914).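 Further: secreted streptokinase activity via plasminogen activation per viability signal from cell pellet.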 The assay is classed as functional, Streptococcus pyogenes M1 GAS.

Assay [17] relates to Streptococcus sp. 'group A'. Put plainly: Streptococcus pyogenes SK(-)GAS viability under kanamycin – luminescence, BacTiterGlo, confirmation, counter-screen for streptokinase expression inhibitor project, dose response (AID 1900). The assay is classed as functional, organism-based.
A short description of assay [18]: Luminescence Cell-Based Dose Confirmation HTS to Identify Inhibitors of Platelet Dense Granule Release. [Related pubchem assays: 1663 (Primary HTS), 1678 (Summary of Project)]. The assay is classed as functional.
The target in assay [19] is Luciferin 4-monooxygenase (Photinus pyralis, UniProt P08659). Put plainly: inhibition of purified Photinus pyralis luciferase – biochemical, luminescence, dose response (AID 1891).
Luciferin 4-monooxygenase, sequence (P08659 whole entry): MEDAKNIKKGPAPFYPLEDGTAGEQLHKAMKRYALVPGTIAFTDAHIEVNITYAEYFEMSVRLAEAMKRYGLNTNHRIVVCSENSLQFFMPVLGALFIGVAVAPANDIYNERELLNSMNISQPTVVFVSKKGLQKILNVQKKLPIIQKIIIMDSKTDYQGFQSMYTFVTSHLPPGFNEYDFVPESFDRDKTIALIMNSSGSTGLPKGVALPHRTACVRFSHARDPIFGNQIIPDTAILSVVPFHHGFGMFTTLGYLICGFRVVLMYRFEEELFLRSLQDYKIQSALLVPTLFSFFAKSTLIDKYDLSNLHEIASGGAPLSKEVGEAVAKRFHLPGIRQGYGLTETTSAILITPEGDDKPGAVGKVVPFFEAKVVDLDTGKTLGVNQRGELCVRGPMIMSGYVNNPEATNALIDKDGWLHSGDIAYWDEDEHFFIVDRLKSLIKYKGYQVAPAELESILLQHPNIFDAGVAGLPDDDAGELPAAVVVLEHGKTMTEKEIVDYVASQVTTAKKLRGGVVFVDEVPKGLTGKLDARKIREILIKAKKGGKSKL

Calls of active or inactive are those of the source.

FAD-linked sulfhydryl oxidase ALR, sequence (P55789 whole entry): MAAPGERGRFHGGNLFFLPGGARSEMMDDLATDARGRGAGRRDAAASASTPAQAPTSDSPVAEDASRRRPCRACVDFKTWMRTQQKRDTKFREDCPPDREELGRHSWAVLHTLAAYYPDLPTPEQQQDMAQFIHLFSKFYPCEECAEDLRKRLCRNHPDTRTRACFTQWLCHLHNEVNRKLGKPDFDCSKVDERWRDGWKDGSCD
Cytochrome P450 2C9, sequence (P11712 whole entry): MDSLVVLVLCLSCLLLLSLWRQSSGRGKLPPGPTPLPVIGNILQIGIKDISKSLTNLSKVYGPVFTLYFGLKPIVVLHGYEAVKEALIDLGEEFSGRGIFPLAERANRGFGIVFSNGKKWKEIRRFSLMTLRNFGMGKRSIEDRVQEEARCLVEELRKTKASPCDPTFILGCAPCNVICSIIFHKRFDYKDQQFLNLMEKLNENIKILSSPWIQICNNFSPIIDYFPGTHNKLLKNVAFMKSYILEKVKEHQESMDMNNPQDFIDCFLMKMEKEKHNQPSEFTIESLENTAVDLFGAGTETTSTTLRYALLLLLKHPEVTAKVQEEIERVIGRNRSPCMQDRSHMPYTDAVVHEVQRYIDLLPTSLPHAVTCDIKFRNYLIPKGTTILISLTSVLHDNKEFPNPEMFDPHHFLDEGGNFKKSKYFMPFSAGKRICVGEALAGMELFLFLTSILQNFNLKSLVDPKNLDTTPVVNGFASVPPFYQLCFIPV

On to `C[C@@H]1CN([C@H](C)CO)C(=O)c2cccc(NC(=O)Nc3ccccc3)c2O[C@H]1CN(C)Cc1ccc(C(=O)Nc2ccccc2N)cc1`, for which the AC50 in assay [1] was 2.02 µM (active).

For the compound `Cc1noc(C)c1NC(=O)Nc1cccc2c1O[C@H](CN(C)Cc1ccc(C(=O)Nc3ccccc3N)cc1)[C@@H](C)CN([C@@H](C)CO)C2=O`, the AC50 in [1] was 3.76 µM (active).

For `COc1cccc(/C=C2\SC(=S)N(c3cccnc3)C2=O)c1OC`, the IC50 in [2] and in assay [3] was > 66 µM (inactive) in each case.

Consider `CNc1nnc(CSc2nc3ccccc3s2)s1`, for which, in assay [4], the AC50 was 0.714 µM (active).

Consider `[O-][S+](Cc1cc(Oc2ccccc2)nc(-c2ccccc2)n1)c1ccccc1` (stereo unspecified), for which the AC50 in assay [5] is 1.26 µM (inconclusive); in assay [6] it was 3.98 µM (inconclusive); in assay [8] it was 28.2 µM (inconclusive). Besides, the EC50 in assay [7] was 7.24 µM (active).

Take `CN1Cc2c(N3CCOCC3)nc(SCc3ccccc3)c(C#N)c2CC1(C)C`: the IC50 in assay [2] and in [3] was > 66 µM (inactive) in each case. Further, the results for the EC50 in [9], in [10] and in assay [11] were > 60 µM (not active), 0.62 µM (active) and > 53 µM (inactive), respectively.

In the case of `C[C@H](CO)N1C[C@H](C)[C@H](CN(C)Cc2ccc(Cl)c(Cl)c2)Oc2ccc(NC(=O)Nc3ccc4c(c3)OCO4)cc2CC1=O`, in assay [1], the AC50 was 6.16 µM (active).

For `CC1CN(C(=O)N2c3ccccc3Sc3ccccc32)C(C)CC1=O` (stereo unspecified), the EC50 in assay [7] was 8.31 µM (active).

Turning to `C[C@H]1CN([C@@H](C)CO)C(=O)c2cc(NC(=O)Nc3ccc(C(F)(F)F)cc3)ccc2O[C@H]1CN(C)Cc1ccc(Oc2ccccc2)cc1`, the AC50 in assay [1] is 3.42 µM (active).

Regarding `CCS(=O)(=O)n1nc(NCc2cccc(OC)c2)nc1NCc1cccc(OC)c1`, in assay [7], the EC50 was 8.18 µM (active).

Turning to `O=c1[nH]c2cc3c(cc2cc1CN(CCCO)Cc1nnnn1Cc1ccc(F)cc1)OCO3`, the IC50 in [2] and in assay [3] was > 66 µM (inactive) in each case. Besides, the AC50 in assay [5] was 12.6 µM (inconclusive); in assay [6], 11.2 µM (inconclusive).

With `Cc1ccc(-c2noc(CN(C(=O)CCCCCN3C(=O)c4ccccc4C3=O)C(C)C)n2)cc1`, in assay [12], the IC50 is on record as 5.93 µM (not active). For the same compound, the EC50 in [7] was 7.53 µM (active).

As to `O=C(NC12CC3CC(CC(C3)C1)C2)c1cnccn1`, the IC50 in assay [2] is 43.3 µM (inactive); in assay [3], 38.7 µM (inactive).

In the case of `O=C(CC(Nc1ccccc1Cl)C(=O)O)c1ccccc1` (stereo unspecified), in [4], the AC50 is 13 µM (active).

For `CC1(c2ccc3noc(-c4ccc(F)cc4)c3c2)OCCO1`, the IC50 in assay [2] was > 66 µM (inactive); in assay [3], 19.3 µM (active).

Regarding `Cn1cccc1Cc1nnc(SCC(=O)Nc2ccc(F)cc2)n1-c1ccc(F)cc1`, in [7], the EC50 is 2.17 µM (active).

As for `Cc1ccc(C(=O)N2CCN(c3ccccc3O)CC2)cc1S(=O)(=O)N1CCCCC1`, the AC50 in assay [4] is 9.33 µM (active).

With `Cc1cc(C)c(S(=O)(=O)Nc2ccc(N(C)C)cc2)c(C)c1-n1cnnn1`, the IC50 in [13] is 41.6 µM (active). Also, in assay [14], the EC50 is reported as > 195 µM (not active). In assay [4], the AC50 was 0.197 µM (active).

As for `COc1ccc(NC(=S)N=Nc2c(O)[nH]c3ccccc23)cc1`, the IC50 in [2] and in assay [3] was > 66 µM (inactive) throughout. Besides, the values for the EC50 in assay [15], in [16] and in [17] were 14.1 µM (active), > 150 µM (not active) and 2.34 µM (active), respectively.

`Cn1cccc1Cc1nnc(SCC(=O)Nc2cccc(F)c2)n1-c1ccc(F)cc1`: the EC50 in assay [7] was 3.35 µM (active).

In the case of `Nc1ccc(-c2cc(N)n(-c3ccccc3)n2)cc1`, the AC50 in assay [4] is 0.8 µM (active).

As to `O=C(N/N=C/c1cc(I)cc(I)c1O)c1ccccc1O`, the half-maximal activity concentration (AC50) in assay [1] is 3.17 µM (active).

As for `COc1c(/C=N/NC(=O)c2ccccc2O)c(CCN(C)C(C)=O)cc2c1OCO2`, the EC50 in [18] and in assay [19] was > 112 µM (not active) in each case.

On to `O=C(Cn1cccc1)N1CCN(c2ccc(F)cc2)CC1`, for which the EC50 in assay [18] and in assay [19] was > 112 µM (not active) throughout.

The values above are taken from ChEMBL document CHEMBL1201862, “PubChem BioAssay data set” (2004).
